In PubChem BioAssay AID2060887 (Molecular Pharmacology Branch, DTP, NCI, 2025):
Blank lines part the entries; values can stand above or below the compound they belong to.

Tested on: 782815-120-R-J1-PDC complex spheroid viability
Experiment: Anticancer human tumor 782815-120-R-J1-PDC patient-derived colon adenocarcinoma cell line growth inhibition [RAS]
Conditions: for IC50: curve of first compound; for viability, T/C: stronger effect = lower value
Source text: RAS pathway inhibitors in Combinations in Complex Spheroids
A high-throughput screen of multi-cell type tumor spheroids was designed to identify active combinations of RAS pathway inhibitors and targeted small molecules. Complex spheroids include a stromal component modeled by human endothelial cells (HUVEC) and fibroblasts modeled by human mesenchymal stem cells (MSCs). The concentration ranges selected for each drug and investigational agent were based upon clinically achievable concentrations if the clinical Cmax of the agent was known.
Compounds. The drugs and investigational agents: abemaciclib (NSC768073), cobimetinib (NSC768068), divarasib (GDC6063, NSC841802), docetaxel (NSC628503), GDC-1971 (RLY-1971, NSC841576), gemcitabine (NSC613327), inavolisib (NSC800729), ipatasertib (NSC767898), KB-0742 (NSC834161), MRTX-1133 (NSC836407), osimertinib (NSC779217), RMC-4630 (NSC839698), RMC-6236 (NSC851965), RMC-6291 (NSC852671), Ro-3306 (NSC812927), sapanisertib (NSC764658), SN-38 (NSC673596), staurosporine (NSC755774), SY5609 (NSC837396), and tovorafenib (DAY101, NSC766906), were obtained from the National Cancer Institute (NCI) Developmental Therapeutics Program Chemical Repository. The FDA-approved anticancer drug set is available from the NCI Developmental Therapeutics Program. […] The stock solutions were prepared in dimethyl sulfoxide (DMSO, Sigma-Aldrich, St. Louis, MO, cat. D2650) at 800-fold the tested concentration and stored at -70 degrees C prior to their use. All drugs and investigational agents were tested over a range starting from a high concentration at or near the clinical Cmax and decreasing in half-log increments. If the clinical Cmax for an agent had not been determined, the highest concentration tested was 10 microM.
Cell Culture. All cells were maintained in an incubator at 37 degrees C and 5% CO2 with 95% humidity. The PDC lines were cultured according to standard operating procedures established by the NCI PDMR. All PDCs were thawed and cultured in Matrigel-coated flasks prepared with a working solution of 1X Ham's F-12 nutrient mix, without supplementation (Invitrogen, Waltham, MA, cat. 11765054), 100 U/mL penicillin-streptomycin (Invitrogen, cat. 15140122), and 2.5% Matrigel (Corning Inc., Corning, NY, cat. 354248) for the first three passages. The 362531-283-R-J2-PDC and 782815-120-R-J1-PDC lines were cultured in 6C/Colon 1B media, which includes advanced DMEM/F-12 (Thermo Fisher Scientific, cat. 12634028), 10 mM HEPES (Thermo Fisher Scientific, cat. 15630080), 1X GlutaMAX supplement (Thermo Fisher Scientific, cat. 35050061), 0.1 mg/mL primocin (InvivoGen, San Diego, CA, cat. ant-pm-2), 10% defined fetal bovine serum, heat inactivated (HyClone Laboratories Inc., Logan, UT, cat. SH30070.03HI), 50% L-WRN conditioned media (ATCC, cat. CRL-3276), 1.25 mM N-Acetyl-L-cysteine (Sigma-Aldrich, cat. A9165), 10 mM nicotinamide (Sigma-Aldrich, cat. N0636), 1X B-27 supplement (Thermo Fisher Scientific, cat. 17504044), 1X N-2 supplement (Thermo Fisher Scientific, cat. 17502048), 50 ng/mL human EGF (Thermo Fisher Scientific, cat. PHG0311), and 10 microM Y-27632 dihydrochloride (Tocris Bioscience, cat. 1254). The K12877-001-R-J1-PDC line was cultured in 6I media, which includes all 6C/Colon 1B media plus 10 ng/mL human FGF-10 (PeproTech, cat. 100-26), 1 ng/mL human FGF-2 (PeproTech, cat. 100-18B), 1 µM prostaglandin E2 (Tocris Bioscience, cat. 2296), […] hydrocortisone (Sigma-Aldrich, cat. H4001), and […] bovine insulin (Sigma-Aldrich, cat. I6634). The K86415-001-R-J1-PDC line was cultured in 6D media, which includes all 6C/Colon 1B media components minus the L-WRN conditioned media. The 485176-168-R4-J1-PDC was cultured in PANC media, which includes all 6C/Colon 1B media plus 100 ng/mL human FGF-10 (PeproTech, cat. 100-26), 500 nM SB-431542 (Selleckchem, cat. S1067), and 10 nM gastrin (Tocris Bioscience, cat. 3006). […]
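Note: spheroids exposed to compounds for 7 days before reading.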
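Throughout, for viability, T/C: 100% = DMSO vehicle control viability.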

IC50 (second compound 0.00316 µM): > 1000 nM
IC50 (second compound 0.01 µM): > 1000 nM
IC50 (second compound 0.0316 µM): > 1000 nM
IC50 (second compound 0.1 µM): > 1000 nM
IC50 (second compound 0.316 µM): > 1000 nM
IC50 (second compound 1 µM): > 1000 nM
Compound: CCN1CCN(Cc2ccc(Nc3ncc(F)c(-c4cc(F)c5nc(C)n(C(C)C)c5c4)n3)nc2)CC1 + C=CC(=O)N1CCN(c2nc(OCC3CCCN3C)nc3c(F)c(-c4nc(N)cc(C)c4C(F)(F)F)c(Cl)cc23)C(C)C1
viability, T/C (second compound 0.00316 µM, first compound 0.00316 µM): 95.3%
viability, T/C (second compound 0.00316 µM, first compound 0.01 µM): 98.8%
viability, T/C (second compound 0.00316 µM, first compound 0.0316 µM): 99.3%
viability, T/C (second compound 0.00316 µM, first compound 0.1 µM): 101%
viability, T/C (second compound 0.00316 µM, first compound 0.316 µM): 105%
viability, T/C (second compound 0.00316 µM, first compound 1 µM): 128%
viability, T/C (second compound 0.01 µM, first compound 0.00316 µM): 98.9%
viability, T/C (second compound 0.01 µM, first compound 0.01 µM): 97.2%
viability, T/C (second compound 0.01 µM, first compound 0.0316 µM): 95.8%
viability, T/C (second compound 0.01 µM, first compound 0.1 µM): 98.2%
viability, T/C (second compound 0.01 µM, first compound 0.316 µM): 104%
viability, T/C (second compound 0.01 µM, first compound 1 µM): 118%
viability, T/C (second compound 0.0316 µM, first compound 0.00316 µM): 102%
viability, T/C (second compound 0.0316 µM, first compound 0.01 µM): 105%
viability, T/C (second compound 0.0316 µM, first compound 0.0316 µM): 99.5%
viability, T/C (second compound 0.0316 µM, first compound 0.1 µM): 103%
viability, T/C (second compound 0.0316 µM, first compound 0.316 µM): 108%
viability, T/C (second compound 0.0316 µM, first compound 1 µM): 118%
viability, T/C (second compound 0.1 µM, first compound 0.00316 µM): 93.4%
viability, T/C (second compound 0.1 µM, first compound 0.01 µM): 96.1%
viability, T/C (second compound 0.1 µM, first compound 0.0316 µM): 106%
viability, T/C (second compound 0.1 µM, first compound 0.1 µM): 103%
viability, T/C (second compound 0.1 µM, first compound 0.316 µM): 108%
viability, T/C (second compound 0.1 µM, first compound 1 µM): 116%
viability, T/C (second compound 0.316 µM, first compound 0.00316 µM): 96.5%
viability, T/C (second compound 0.316 µM, first compound 0.01 µM): 96.5%
viability, T/C (second compound 0.316 µM, first compound 0.0316 µM): 102%
viability, T/C (second compound 0.316 µM, first compound 0.1 µM): 99.3%
viability, T/C (second compound 0.316 µM, first compound 0.316 µM): 111%
viability, T/C (second compound 0.316 µM, first compound 1 µM): 117%
viability, T/C (second compound 1 µM, first compound 0.00316 µM): 92%
viability, T/C (second compound 1 µM, first compound 0.01 µM): 90.8%
viability, T/C (second compound 1 µM, first compound 0.0316 µM): 104%
viability, T/C (second compound 1 µM, first compound 0.1 µM): 96.1%
viability, T/C (second compound 1 µM, first compound 0.316 µM): 108%
viability, T/C (second compound 1 µM, first compound 1 µM): 123%

IC50 (second compound 0.000949 µM): 29.3 nM
IC50 (second compound 0.003 µM): 42.4 nM
IC50 (second compound 0.00949 µM): 31.5 nM
IC50 (second compound 0.03 µM): 38 nM
IC50 (second compound 0.0949 µM): 50 nM
IC50 (second compound 0.3 µM): 47.6 nM
Compound: Nc1ccn(C2OC(CO)C(O)C2(F)F)c(=O)n1 (centres undefined) + CCn1c(-c2cccnc2C(C)OC)c2c3cc(ccc31)N1CCOC(CC(NC(=O)C(C(C)C)N(C)C(=O)C3(F)CCN(C(=O)C#CC(C)(C)N(C)C)CC3)C(=O)N3CCCC(N3)C(=O)OCC(C)(C)C2)C1
viability, T/C (second compound 0.000949 µM, first compound 0.00316 µM): 89.4%
viability, T/C (second compound 0.000949 µM, first compound 0.01 µM): 64.7%
viability, T/C (second compound 0.000949 µM, first compound 0.0316 µM): 50.6%
viability, T/C (second compound 0.000949 µM, first compound 0.1 µM): 37.2%
viability, T/C (second compound 0.000949 µM, first compound 0.316 µM): 23.5%
viability, T/C (second compound 0.000949 µM, first compound 1 µM): 23.5%
viability, T/C (second compound 0.003 µM, first compound 0.00316 µM): 95%
viability, T/C (second compound 0.003 µM, first compound 0.01 µM): 71.3%
viability, T/C (second compound 0.003 µM, first compound 0.0316 µM): 59.3%
viability, T/C (second compound 0.003 µM, first compound 0.1 µM): 34.6%
viability, T/C (second compound 0.003 µM, first compound 0.316 µM): 27.3%
viability, T/C (second compound 0.003 µM, first compound 1 µM): 24.5%
viability, T/C (second compound 0.00949 µM, first compound 0.00316 µM): 96.2%
viability, T/C (second compound 0.00949 µM, first compound 0.01 µM): 71.8%
viability, T/C (second compound 0.00949 µM, first compound 0.0316 µM): 50.8%
viability, T/C (second compound 0.00949 µM, first compound 0.1 µM): 34.7%
viability, T/C (second compound 0.00949 µM, first compound 0.316 µM): 29.1%
viability, T/C (second compound 0.00949 µM, first compound 1 µM): 25.7%
viability, T/C (second compound 0.03 µM, first compound 0.00316 µM): 85.4%
viability, T/C (second compound 0.03 µM, first compound 0.01 µM): 75.7%
viability, T/C (second compound 0.03 µM, first compound 0.0316 µM): 53.2%
viability, T/C (second compound 0.03 µM, first compound 0.1 µM): 33.6%
viability, T/C (second compound 0.03 µM, first compound 0.316 µM): 27.2%
viability, T/C (second compound 0.03 µM, first compound 1 µM): 25.7%
viability, T/C (second compound 0.0949 µM, first compound 0.00316 µM): 83.6%
viability, T/C (second compound 0.0949 µM, first compound 0.01 µM): 71.8%
viability, T/C (second compound 0.0949 µM, first compound 0.0316 µM): 57.9%
viability, T/C (second compound 0.0949 µM, first compound 0.1 µM): 38.7%
viability, T/C (second compound 0.0949 µM, first compound 0.316 µM): 28.1%
viability, T/C (second compound 0.0949 µM, first compound 1 µM): 20.1%
viability, T/C (second compound 0.3 µM, first compound 0.00316 µM): 85.3%
viability, T/C (second compound 0.3 µM, first compound 0.01 µM): 71.2%
viability, T/C (second compound 0.3 µM, first compound 0.0316 µM): 58.4%
viability, T/C (second compound 0.3 µM, first compound 0.1 µM): 38.5%
viability, T/C (second compound 0.3 µM, first compound 0.316 µM): 24.2%
viability, T/C (second compound 0.3 µM, first compound 1 µM): 22.1%
